Experimental data as given in US7399775B2, “β-amyloid protein production/secretion inhibitor” (Daiichi Pharmaceutical Co., Ltd., priority 2001, dated 2008).

melting point [°C]	Structure (SMILES)
121 to 123	COC(=O)CCc1ccc(C(c2cc(F)ccc2F)S(=O)(=O)c2ccc(Cl)cc2)nc1 (stereo not drawn) [Example 333, Methyl 3-[6-[(4-chlorophenylsulfonyl)-(2,5-difluorophenyl)methyl]pyridin-3-yl]propionate]
113 to 114	O=S(=O)(c1ccc(Cl)cc1)C(c1ccc(CN2CCCCC2)cn1)c1cc(F)ccc1F (stereo not drawn) [Example 336, 2-[(4-Chlorophenylsulfonyl)-(2,5-difluorophenyl)methyl]-5-(piperidin-1-ylmethyl)pyridine]
120 to 121	O=S(=O)(c1ccc(Cl)cc1)C(c1ccc(CN2CCOCC2)cn1)c1cc(F)ccc1F (stereo not drawn) [Example 337, 4-[[6-[(4-Chlorophenylsulfonyl)-(2,5-difluorophenyl)methyl]pyridin-3-yl]methyl]morpholine]
> 230	O=C(O)c1ccc(C(c2cc(F)ccc2F)S(=O)(=O)c2ccc(Cl)cc2)nc1 (stereo not drawn) [Example 338, [6-[(4-Chlorophenylsulfonyl)-(2,5-difluorophenyl)methyl]pyridin-3-yl]carboxylic Acid]
183 to 184	O=S(=O)(c1ccc(Cl)cc1)C(c1ccc[n+]([O-])c1)c1cc(F)ccc1F (stereo not drawn) [Example 339, 3-[(4-Chlorophenylsulfonyl)-(2,5-difluorophenyl)methyl]pyridin-N-oxide]
211 to 212	O=S(=O)(c1ccc(Cl)cc1)C(c1cc[n+]([O-])cc1)c1cc(F)ccc1F (stereo not drawn) [Example 340, 4-[(4-Chlorophenylsulfonyl)-(2,5-difluorophenyl)methyl]pyridin-N-oxide]
70 to 72	Fc1ccc(F)c(C(Sc2ccc(Cl)cc2)c2ccncc2Cl)c1 (stereo not drawn) [Example 341, 3-Chloro-4-[(4-chlorophenylthio)-(2,5-difluorophenyl)methyl]pyridine]
128 to 129	Fc1ccc(F)c(C(Sc2ccc(Cl)cc2)c2cc(Cl)ncc2Cl)c1 (stereo not drawn) [Example 342, 2,5-Dichloro-4-[(4-chlorophenylthio)-(2,5-difluorophenyl)methyl]pyridine]
177 to 178	CN(C)S(=O)(=O)NCc1ccc(C(c2cc(F)ccc2F)S(=O)(=O)c2ccc(Cl)cc2)nc1 (stereo not drawn) [Example 356, N-[[6-[(4-Chlorophenylsulfonyl)(2,5-difluorophenyl)methyl]pyridin-3-yl]methyl]-N′,N′-dimethylsulfamide]
193 to 194	CCOC(=O)C(=O)NCc1ccc(C(c2cc(F)ccc2F)S(=O)(=O)c2ccc(Cl)cc2)nc1 (stereo not drawn) [Example 357, Ethyl 2-[[6-[(4-chlorophenylsulfonyl)(2,5-difluorophenyl)methyl]pyridin-3-yl]methylamino]-2-oxoacetate]
217 to 218	Cc1ccc(S(=O)(=O)NCC(=O)NCc2ccc(C(c3cc(F)ccc3F)S(=O)(=O)c3ccc(Cl)cc3)nc2)cc1 (stereo not drawn) [Example 358, N-[[6-[(4-Chlorophenylsulfonyl)(2,5-difluorophenyl)methyl]pyridin-3-yl]methyl]-2-(4-methylphenylsulfonylamino)acetamide]
177 to 179	CN(C)CC(=O)NCc1ccc(C(c2cc(F)ccc2F)S(=O)(=O)c2ccc(Cl)cc2)nc1 (stereo not drawn) [Example 359, N-[[6-[(4-Chlorophenylsulfonyl)(2,5-difluorophenyl)methyl]pyridin-3-yl]methyl]-2-dimethylaminoacetamide]
